According to patent publication US7959691B2, “Composition” (Innospec Deutschland GmbH, priority 2009, dated 2011):
Marks after values point to notes of the source that are not given here. One block for each compound: values may come before it.

Assays:
[1] = Solubility in Isopar L at −30° C. during 120 hours, X-ray fluorescence (Example 4); format: physicochemical; settings: nominal 5 wt % iron; for Solubility (% m/m Fe): 0.02 μm filtration
Procedure: The solubility of the isolated samples was determined in Isopar L solvent. For the isolated samples of compounds 7 and 8 the C/H/N analysis was used to indicate the iron content. For compounds 9 and 10 the theoretical iron content was assumed. Solutions were then prepared, at ambient temperatures or with slight warming as required, to a nominal iron content 5 wt % The samples were then sealed and immersed in a bath of ethylene glycol/water cooled and thermostatted to −30° C. during 120 hours.
The samples were then individually removed from the bath, taken up into a 10 cm^3 syringe then discharged to a second vial with filtration via a Whatman Anotop 25 0.02 μm in-line filter with Luer hub. Iron contents were then determined by X-ray fluorescence spectroscopy in an Oxford Instruments ED2000 Ag analyser. The analyser was calibrated against standards of ferrocene in toluene at iron concentrations of 0.5 through 3.0 wt % by 0.5 wt % intervals and against ferrocene in Isopar L 0.5 and 1.0 wt % (approximate ambient temperature solubility limit). Where required, dilution of sample materials was employed to bring the concentration within the range of the calibration.

[2] = Iron content of Isopar L solutions stored at −30° C. (Example 2); format: physicochemical; settings: for Iron content of Isopar L solutions at −30° C.: 5 wt % iron solutions in Isopar L stored at −30° C. at least one week, filtered, X-ray spectroscopy; for Iron content of Isopar L solutions at −30° C., purified sample: as E8, sample first purified by dissolving in minimum heptane, recrystallising out ferrocene, filtration, solvent removal
Procedure: The solubilities of the products of the above reactions were determined on a weight percent iron basis. […] Solutions at 5 wt % iron in Isopar L were prepared on this basis, sealed into vials and stored at −30° C. during at least one week.

[3] = Source text: Solubility testing was undertaken using the estimate of Fe content from C/H/N analysis. […] This procedure assumes the products below to contain substantially only C, H and Fe. Masses of product(s) sufficient to provide the required concentration of iron as condensation products were weighed into screw-cap vials and made up to 10.00 g with toluene. The samples were capped, shaken or swirled until homogenous then sealed using Parafilm™. The vials were then kept in an ethylene glycol/water filled bath held at −30° C. and periodically inspected for the appearance of solids or separation of liquid phases. After at least one week solids were separated by rapid filtration and soluble products isolated by removal of solvent under vacuum.
Following analysis of the solids, maximum and minimum solubilities were estimated from the mass balance.

[4] = Viscosity of 2.5 wt % iron solutions in toluene (Bohlin CVO rheometer); format: physicochemical; settings: toluene solution at 2.5 wt % Fe
Procedure: Viscosities of 2.5 wt % iron solutions were determined using a Bohlin Instruments CVO rheometer using a 4° 40 mm cone and plate at shear rates of either 2 Pa or 0.5 Pa.

Compound: 1,1-bis(butylferrocenyl)pentane [Compound 10]
Appearance/ease of filtration [1]: Clear, but hard to filter | Solubility (% m/m Fe) [1]: 4.8 % m/m Fe

Compound: 1,1-bis(ethylferrocenyl)pentane [Compound 9]
Appearance/ease of filtration [1]: Clear, filters well | Solubility (% m/m Fe) [1]: 5.0 % m/m Fe

Compound: 1,1-bis-(ferrocenyl)-decane
Iron content of Isopar L solutions at −30° C. [2]: 4.41 wt %

Compound: 1,1-bis-(ferrocenyl)-heptane
Iron content of Isopar L solutions at −30° C. [2]: 4.05 wt %

Compound: 1,1-bis-(ferrocenyl)-hexane
Iron content of Isopar L solutions at −30° C. [2]: 3.99 wt % | Iron content of Isopar L solutions at −30° C., purified sample [2]: 4.89* wt %

Compound: 1,1-bis-(ferrocenyl)-nonane
Iron content of Isopar L solutions at −30° C. [2]: 4.96 wt %

Compound: 1,1-bis-(ferrocenyl)-octane
Iron content of Isopar L solutions at −30° C. [2]: 4.60 wt % | Iron content of Isopar L solutions at −30° C., purified sample [2]: 4.88* wt %

Compound: 1,1-diferrocenylpentane [Compound 4]
Solubility in Toluene at −30° C., 2.5 wt % Fe [3]: Clear | Solubility in Toluene at −30° C., 5.0 wt % Fe [3]: Clear | Viscosity at −30° C. [4]: 5.4 mPas

Compound: 2,2-bis-(ferrocenyl)-heptane
Iron content of Isopar L solutions at −30° C. [2]: 3.29 wt %

Compound: 2,2-bis-(ferrocenyl)-octane
Iron content of Isopar L solutions at −30° C. [2]: 2.72 wt %

Compound: 2,2-bis-(ferrocenyl)-pentane
Iron content of Isopar L solutions at −30° C. [2]: 2.62 wt %

Compound: 3,3-bis-(ferrocenyl)-butyl acetate
Iron content of Isopar L solutions at −30° C. [2]: 2.30 wt %

Compound: 3,3-bis-(ferrocenyl)-hexane
Iron content of Isopar L solutions at −30° C. [2]: 1.38 wt %

Compound: 3,3-bis-(ferrocenyl)-pentane
Iron content of Isopar L solutions at −30° C. [2]: 1.71 wt %

Solubility in Toluene at −30° C., 2.5 wt % Fe [3]: Clear | Solubility in Toluene at −30° C., 5.0 wt % Fe [3]: Clear | solubility limit in toluene [3]: less than 3.2 wt % | Viscosity at −30° C. [4]: 5.1 to 6.4 mPas
Compound: CCCCC(C=O)CC (centres unmarked) [Compound 1, 2-Ethylhexanal]

Compound: CC(=O)CCC(C)=O [Compound 2, Acetonyl acetone]
Solubility in Toluene at −30° C., 2.5 wt % Fe [3]: Powder | Solubility in Toluene at −30° C., 5.0 wt % Fe [3]: Powder

Solubility in Toluene at −30° C., 2.5 wt % Fe [3]: Clear | Solubility in Toluene at −30° C., 5.0 wt % Fe [3]: Solids | Viscosity at −30° C. [4]: 5.1 mPas
Compound: CCCC(=O)CCC [Compound 3, Heptan-4-one]
